We go through 4 compounds from patent US9107415B2, “2-(substituted-phenyl)-cyclopentane-1,3-dione compounds, and derivatives thereof” (Syngenta Limited, priority 2011, dated 2015).

For data set [1], the system named is Lolium multiflorum (LOLMU). Nature of the data set: Biological Example 4B (not-previously-formulated compounds) post-emergence herbicidal activity on grassy weeds. As to conditions: 14 DAA, technical compound in IF50 + Adigor, mean of two. Format: in vivo. As to the method:
(§1) Seeds of a variety of test species are sown in standard soil in pots. After cultivation for 14 days under controlled conditions in a glasshouse (at 22/16°C., day/night; 16 hours light; 65% humidity), the plants are sprayed with an aqueous spray solution derived from the formulation of the technical active ingredient dissolved in acetone plus IF50 containing
(§2) 10.56 wt % Emulsogen™EL (castor oil ethoxylate, CAS Registry number 61791-12-6)
(§3) 42.22 wt % N-Methyl pyrrolidone
(§4) 42.22 wt % dipropylene glycol monoethyl ether
(§5) at a 1:20 ratio of (technical active ingredient:IF50). The adjuvant Adigor™(an adjuvant containing inter alia methylated rapeseed oil, e.g. available from Syngenta) is added to form a 0.5% v/v solution. The test plants are then grown on under controlled conditions in the glasshouse (at 22/16°C., day/night; 16 hours light; 65% humidity) and are watered twice daily. After 14 days the test is evaluated (100%=total damage to plant; 0%=no damage to plant).
(§6) Post-emergence herbicidal activity (phytotoxicity) data, on certain grassy monocotyledonous weeds and cereal crops in a glasshouse, are measured 14 days after application of the herbicide (14 DAA), for (a) a […] the same time as the herbicide, and (b) for a post-emergence application rate of 30 g/ha of the test herbicide with 50 g/ha of cloquintocet-mexyl safener applied at substantially the same time as the herbicide. Herbicidal activity (phytotoxicity) is evaluated visually, and an assessed percentage phytotoxicity score is given for each herbicidal application on each plant species (with 100%=total damage to plant; 0%=no damage to plant). Two repetitions are made for each experiment, and the mean herbicidal activity (phytotoxicity) data is reported.
Test plants: Avena fatua (AVEFA), Lolium multiflorum (LOLMU), Setaria viridis (SETVI), Poa annua (POAAN), Alopecurus myosuroides (ALOMY). All five of these are grassy monocotyledonous weeds.

Data set [2] deals with Spring Barley “Harrington”. The experiment in a line: Biological Example 4B post-emergence phytotoxicity on cereal crops. Format: in vivo. As to conditions: 14 DAA, technical compound in IF50 + Adigor, mean of two. Here is the method:
as §1, §2, §3, §4, §5
Post-emergence herbicidal activity (phytotoxicity) data, on certain grassy monocotyledonous weeds and cereal crops in a glasshouse, are measured 14 days after application of the herbicide (14 DAA), for (a) a post-emergence application rate of 60 g/ha of the test herbicide with or without 50 g/ha of cloquintocet-mexyl safener applied at substantially the same time as the herbicide, and (b) for a post-emergence application rate of 30 g/ha of the test herbicide with 50 g/ha of cloquintocet-mexyl safener applied at substantially the same time as the herbicide. Herbicidal activity (phytotoxicity) is evaluated visually, and an assessed percentage phytotoxicity score is given for each herbicidal application on each plant species (with 100%=total damage to plant; 0%=no damage to plant). Two repetitions are made for each experiment, and the mean herbicidal activity (phytotoxicity) data is reported.

The subject of a further data set is Spring Wheat “Teal”. The description is as above. Format: in vivo. The following applies: 14 DAA, technical compound in IF50 + Adigor, mean of two. As to the method:
as §1, §2, §3, §4, §5, §6

Data set [3] deals with Spring Barley “Harrington”. Described as above. Format: in vivo. As to conditions: 15 g/ha, cloquintocet-mexyl 50 g/ha, 14 DAA, technical compound in IF50 + Adigor, mean of two.
Data set [4] can be described thus: Biological Example 5B “RASP” soil persistence method. As to conditions: 18 Acres soil. As to the method:
Field soil (of the type “18 Acres”, as described in Biological Example 5A and Table 5.1 above) is sieved to 2 mm. The sieved soil is wetted up with distilled water, mixing thoroughly until it reaches “field capacity”. […] Usually, the moisture content of the soil used is about 25%.
For each compound tested, 6×50 mL polypropylene centrifuge tubes containing 10 g±0.5 g of soil at field capacity are used. Each tube lid has a 2 mm hole to allow for air circulation during the incubation period.
4×10 microliters of treatment solutions of the compounds to be tested are applied to the surface of the soil in groups of 6 tubes. 4×10 microliter drops are also dispensed into the treatment check vials and these are diluted to 1 mL with acetonitrile; at this point additional samples can be prepared for HPLC method development if required.
Two of the tubes containing the treated soil are capped and immediately frozen as T0 (day zero) samples. The remaining four samples are capped with lids containing a 2 mm hole drilled into the lid and incubated in controlled environment cabinets for the correct time interval at 20°C., 80% relative humidity.
After both one and four weeks incubation, two tubes from each treatment are removed from the cabinets, the lids are replaced for ones lacking ventilation holes and the tubes are frozen. When the samples are ready for analysis, a zero time, 1 week and 4 week sample for each compound is removed from the freezer and allowed to thaw. Immediately after thawing, 40 mL of extraction solution is added to the samples.
Samples are extracted using a mixture such as 80:20 (v/v) acetonitrile/1 M ammonium hydroxide solution. […]
All samples from the test are analysed by UPLC-MS. […]
For each compound, the molecular ion giving the best sensitivity is chosen and a single ion monitoring method is set up. The method development samples are re-analysed using the selected ion monitoring methods to check that suitable sensitivity is obtained.
Degradation kinetics, and an estimated half-life (T½) of the compound in the soil, can then be calculated using simple first order assumptions.

[5] abbreviates: 30 g/ha, cloquintocet-mexyl 50 g/ha.
[6] abbreviates: 60 g/ha, cloquintocet-mexyl 0 g/ha.
[7] abbreviates: 60 g/ha, cloquintocet-mexyl 50 g/ha.
Where [8] appears, read: 15 g/ha, cloquintocet-mexyl 50 g/ha.

Regarding `CC#Cc1cc(C)c(C2=C(O)CC(Cc3ccc(C)cn3)C2=O)c(C)c1` (stereo not drawn) [Compound A-8], the results for the LOLMU % phytotoxicity in data set [1] (setting [5]), in data set [1] (setting [6]) and in data set [1] (setting [7]) were 68%, 92% and 94%, respectively. The “Spring Barley “Harrington” phytotoxicity (%)” value was 18% in data set [2] (setting [5]), 85% in data set [2] (setting [6]) and 75% in data set [2] (setting [7]). For the same compound, the figures for the “Spring Wheat “Teal” phytotoxicity (%)” value in the data set with Spring Wheat “Teal” (setting [5]), in the data set with Spring Wheat “Teal” (setting [6]) and with Spring Wheat “Teal” (setting [7]) were 0%, 73% and 25%, respectively.

Take `CC#Cc1cc(C)c(C2=C(O)CC(Cc3ccc(F)cn3)C2=O)c(C)c1` (stereo not drawn) [Compound A-11]: the LOLMU % phytotoxicity is 68% in data set [1] (setting [5]), 95% in data set [1] (setting [6]) and 88% in data set [1] (setting [7]). Moreover, the figures for the “Spring Barley “Harrington” phytotoxicity (%)” value in data set [2] (setting [5]), in data set [2] (setting [6]) and in data set [2] (setting [7]) were 8%, 58% and 13%, respectively. Moreover, the “Spring Wheat “Teal” phytotoxicity (%)” value in the data set on Spring Wheat “Teal” (setting [5]) is listed as 8%; in the data set with Spring Wheat “Teal” (setting [6]), 38%; with Spring Wheat “Teal” (setting [7]), 15%.

For `CC#Cc1cc(C)c(C2=C(O)CC(Cc3ccc(C#N)cn3)C2=O)c(C)c1` (stereo not drawn) [Compound A-14], the LOLMU % phytotoxicity is listed as 88% in data set [1] (setting [5]), 100% in data set [1] (setting [6]) and 97% in data set [1] (setting [7]). Besides, the “Spring Barley “Harrington” phytotoxicity (%)” value was 70% in data set [2] (setting [5]), 95% in data set [2] (setting [6]) and 95% in data set [2] (setting [7]). The “Spring Wheat “Teal” phytotoxicity (%)” value in the data set with Spring Wheat “Teal” (setting [5]) amounted to 13%; in the data set with Spring Wheat “Teal” (setting [6]), 83%; with Spring Wheat “Teal” (setting [7]), 65%.

With `CC#Cc1cc(C)c(C2C(=O)CC(Cc3ccn(C)n3)C2=O)c(C)c1` (stereo not drawn) [Compound A-19], the LOLMU % phytotoxicity in data set [1] (setting [8]) came out at 98%; in data set [1] (setting [5]), 100%; in data set [1] (setting [6]) it was 100%; in data set [1] (setting [7]) it was 100%. Besides, the “Spring Barley “Harrington” phytotoxicity (%)” value in data set [2] (setting [5]) came out at 38%; in data set [2] (setting [6]), 98%; in data set [2] (setting [7]), 94%; in data set [3], 3%. Besides, the “Spring Wheat “Teal” phytotoxicity (%)” value in the data set on Spring Wheat “Teal” (setting [8]) stood at 23%; in the data set on Spring Wheat “Teal” (setting [5]) it was 73%; in the data set on Spring Wheat “Teal” (setting [6]), 90%; in the data set with Spring Wheat “Teal” (setting [7]), 83%. Also, in data set [4] (0 weeks), the “RASP Test: % of compound remaining at 0 weeks” value stood at 80%. The “RASP Test: % of compound remaining at 1 week” value in data set [4] (1 week incubation at 20°C) was 79%. The “RASP Test: % of compound remaining at 4 weeks” value in data set [4] (4 weeks incubation at 20°C) amounted to 80%.
